# Measurements: patent US10124004B2, “Pyrido[3,4-d]pyrimidine derivative and pharmaceutically acceptable salt thereof” (Teijin Pharma Limited, priority 2015, dated 2018)
# pIC50: −log10 of the molar value. Where two headings read alike, the source gives them in different places.
# Experiments:
# CDK4/cyclin D3 = target: T1, CDK4/cyclin D3 (Homo sapiens, UniProt P11802); test: Human CDK4/cyclin D3 inhibitory activity (QS S Assist CDK4/Cyclin D3_FP Kit, IMAP fluorescence polarization); assay type: biochemical
# T1 construct: purchased Carna Biosciences, Inc. QS S Assist CDK4/Cyclin D3_FP Kit
# Summary of the method: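 IMAP fluorescence-polarization kinase assay with kit ATP/substrate/metal mix and 12.5 to 25 ng/well enzyme in 20 mM HEPES pH 7.4, 0.01% Tween20, 2 mM DTT. Reaction ran 45 min at room temperature, then binding reagent was added for 30 min in the dark. IC50 was taken from dose-response fits of percent inhibition.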
# CDK2/cyclin A2 = target: T2, CDK2/cyclin A2 (Homo sapiens, UniProt P24941); test: Human CDK2/cyclin A2 inhibitory activity (QS S Assist CDK2/Cyclin A2_FP Kit, IMAP fluorescence polarization); assay type: biochemical
# T2 construct: purchased Carna Biosciences, Inc. QS S Assist CDK2/Cyclin A2_FP Kit
# Protocol: Human CDK2/Cyclin A^2 Inhibitory Activity
# Each compound was analyzed for CDK2/cyclin A2 inhibitory activity with an assay kit (QS S Assist CDK2/Cyclin A2_FP Kit, available from Carna Biosciences, Inc.). This assay kit determines kinase activity on the basis of the IMAP technology by Molecular Devices. Specifically, the kinase activity is determined through quantification of a variation in fluorescent polarization caused by binding of a kinase-phosphorylated fluorescent substance to an IMAP-binding reagent.
# An assay buffer was prepared by 10-fold dilution of the 10× assay buffer attached to the kit with distilled water, and each solution was prepared with the assay buffer. The assay buffer contained 20 mM HEPES (pH 7.4), 0.01% Tween 20, and 2 mM dithiothreitol. A test compound solution was prepared by dilution of the test compound with dimethyl sulfoxide (DMSO) to a concentration 100 times higher than the final concentration and then 25-fold dilution with the assay buffer to a concentration four times higher than the final concentration. An ATP/substrate/Metal solution was prepared by five-fold dilution of the 5×ATP/substrate/Metal solution attached to the kit with the assay buffer. An enzyme solution was prepared by dilution of the CDK2/cyclin A2 attached to the kit with the assay buffer to a concentration twice higher than the final concentration (final concentration of CDK2/cyclin A2: 2.5 ng/well). A detection reagent was prepared by five-fold dilution of 5×IMAP-binding buffer A with distilled water and 400-fold dilution of the IMAP-binding reagent with the diluted buffer.
# The test compound solution (5 μL/well) and the ATP/substrate/Metal solution (5 μL/well) were added to a 384-well plate, and the enzyme solution or the assay buffer (10 μL/well) was added to the plate (total amount of the reaction mixture: 20 μL/well) for initiation of enzymatic reaction. […] The reaction was performed at room temperature for 60 minutes, and the detection reagent (60 μL/well) was then added to the plate, followed by further reaction for 30 minutes at room temperature under light shielding conditions. Subsequently, fluorescent polarization was determined with a microplate reader at an excitation wavelength of 485 nm and an emission wavelength of 535 nm.
# The percent inhibition of enzyme activity was calculated for each test compound (note: enzyme activity=100% in the case of addition of the enzyme solution and addition of DMSO instead of the test compound solution, whereas enzyme activity=0% in the case of addition of the assay buffer instead of the enzyme solution and addition of DMSO instead of the test compound solution). The percent inhibition of enzyme activity was fitted to a dose-response curve, to determine a 50% inhibitory concentration against CDK2/cyclin A2.
# In each table, “+++” corresponds to IC50<10 nM, “++” 10 nM≤IC50<100 nM, and “+” 100 nM≤IC50.
# [1] = 50% inhibitory concentration against CDK4/cyclin D3, given as class symbol
# [2] = 50% inhibitory concentration against CDK2/cyclin A2, given as class symbol
# [3] = Human CDK4/cyclin D3 inhibitory activity, read-out: CDK4 Activity symbol
# [4] = Human CDK2/cyclin A2 inhibitory activity, read-out: CDK2 Activity symbol
# T1 sequence (P11802 whole entry): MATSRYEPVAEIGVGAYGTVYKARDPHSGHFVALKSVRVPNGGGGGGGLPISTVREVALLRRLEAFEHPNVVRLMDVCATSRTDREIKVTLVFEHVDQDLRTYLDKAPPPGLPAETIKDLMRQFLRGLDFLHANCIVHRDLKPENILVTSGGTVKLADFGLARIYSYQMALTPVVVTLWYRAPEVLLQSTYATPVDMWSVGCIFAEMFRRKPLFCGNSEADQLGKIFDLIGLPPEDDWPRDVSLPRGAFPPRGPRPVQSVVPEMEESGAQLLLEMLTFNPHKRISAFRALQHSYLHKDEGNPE
# T1 sequence (P30281 whole entry partner): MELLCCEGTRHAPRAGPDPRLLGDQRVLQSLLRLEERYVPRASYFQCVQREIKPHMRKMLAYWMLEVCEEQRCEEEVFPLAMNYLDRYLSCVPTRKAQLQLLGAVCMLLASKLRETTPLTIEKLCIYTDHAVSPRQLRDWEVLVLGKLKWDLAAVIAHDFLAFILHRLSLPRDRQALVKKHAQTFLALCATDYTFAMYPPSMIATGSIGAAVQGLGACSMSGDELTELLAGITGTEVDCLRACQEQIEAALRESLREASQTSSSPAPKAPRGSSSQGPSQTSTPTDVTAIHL
pIC50 (CDK4/cyclin D3; [1]),pIC50 (CDK2/cyclin A2; [2]),pIC50 (CDK4/cyclin D3; [3]),pIC50 (CDK2/cyclin A2; [4]),SMILES
> 8.00,≤ 7.00,–,–,CC(C)CNc1nc([C@@H](C)O)cc2cnc(Nc3ccc(CN4CCC(O)CC4)cn3)nc12 [Compound 1023]
> 8.00,≤ 7.00,–,–,CC(C)Nc1nc([C@@H](C)O)cc2cnc(Nc3ccc4c(n3)CCN(C(=O)CN(C)C)C4)nc12 [Compound 905]
–,–,> 8.00,≤ 7.00,CNC1CC2(C1)CN(c1ccc(Nc3ncc4cc([C@@H](C)OC)nc(NC(C)C)c4n3)nc1)C2 [Compound 512]
> 8.00,≤ 7.00,–,–,"CC(C)Nc1nc(C(C)O)cc2cnc(Nc3ccc(C4COCCN4)cn3)nc12 (single isomer, unassigned) [Compound 865]"
–,–,> 8.00,≤ 7.00,CC(C)Nc1nc([C@@H](C)O)cc2cnc(Nc3ccc(N4CCCCC(N)C4=O)cn3)nc12 (some centres unmarked) [Compound 554]
7.00 to 8.00,≤ 7.00,–,–,CC(C)Nc1nc([C@@H](C)O)cc2cnc(Nc3ccc(CN4CCC(C(=O)O)CC4)cn3)nc12 [Compound 770]
> 8.00,≤ 7.00,–,–,CC(C)Nc1nc([C@@H](C)O)cc2cnc(Nc3ccc(N4CC(C)(C)NCC4=O)cn3)nc12 [Compound 923]
–,–,> 8.00,≤ 7.00,CC(C)Nc1nc([C@@H](C)O)cc2cnc(Nc3ccc(N4CCNC5(CC5)C4)nn3)nc12 [Compound 379]
7.00 to 8.00,≤ 7.00,–,–,COC(=O)CNCCNc1ccc(Nc2ncc3cc([C@@H](C)O)nc(NC(C)C)c3n2)nc1 [Compound 717]
–,–,> 8.00,7.00 to 8.00,FC(F)c1cc2cnc(Nc3ccc(N4CCNCC4)cn3)nc2c(N[C@H]2CCCNC2)n1 [Compound 2]
> 8.00,7.00 to 8.00,–,–,C[C@@H](O)c1cc2cnc(Nc3ccc(N4CCNCC4)nn3)nc2c(NC(C)(C)C)n1 [Compound 791]
–,–,> 8.00,7.00 to 8.00,CC(C)Nc1nc(C(F)F)cc2cnc(Nc3ccc(CN4CCC(O)CC4)cn3)nc12 [Compound 142]
–,–,7.00 to 8.00,≤ 7.00,C[C@@H](O)c1cc2cnc(Nc3ccc(N4CCNCC4=O)cn3)nc2c(N[C@H]2CCOC2)n1 [Compound 349]
–,–,> 8.00,≤ 7.00,CO[C@H](C)c1cc2cnc(Nc3ccc(CN4CCNCC4)cn3)nc2c(NCC2CCOCC2)n1 [Compound 360]
–,–,> 8.00,≤ 7.00,CO[C@H](C)c1cc2cnc(Nc3ccc(N4CCNC5(CC5)C4)nn3)nc2c(N[C@H]2CCCOC2)n1 [Compound 376]
> 8.00,≤ 7.00,–,–,O=C1CNCCN1Cc1ccc(Nc2ncc3cc(C(F)F)nc(N[C@H]4CCCOC4)c3n2)nc1 [Compound 856]
> 8.00,≤ 7.00,–,–,CC(C)CNc1nc([C@@H](C)O)cc2cnc(Nc3ccc(CN4CCC[C@H](O)C4)cn3)nc12 [Compound 1189]
> 8.00,≤ 7.00,–,–,C[C@@H](O)c1cc2cnc(Nc3ccc(N4CCCC(C(=O)O)C4)nn3)nc2c(N[C@H]2CC[C@H](O)CC2)n1 (some centres unmarked) [Compound 1218]
> 8.00,≤ 7.00,–,–,C[C@@H](O)c1cc2cnc(Nc3ccc(N4CCNCC4)cn3)nc2c(NCC2CC2)n1 [Compound 1051]
7.00 to 8.00,≤ 7.00,–,–,"CO[C@H](C)c1cc2cnc(Nc3ccc(N4CCN(C(C)(C)C(=O)O)CC4)nn3)nc2c(NC(C)C)n1 [Compound 678, (R)-2-(4-(6-((8-(isopropylamino)-6-(1-methoxyethyl)pyrido[3,4-d]pyrimidin-2-yl)amino)pyridazin-3-yl)piperazin-1-yl)-2-methylpropanoic acid]"
–,–,> 8.00,≤ 7.00,CCCN1CCN(Cc2ccc(Nc3ncc4cc([C@@H](C)O)nc(NC(C)(C)COC)c4n3)nc2)CC1 [Compound 243]
> 8.00,≤ 7.00,–,–,CO[C@H](C)c1cc2cnc(Nc3ccc(CN4CCN(CCO)CC4)cn3)nc2c(NCC2CCOCC2)n1 [Compound 918]
> 8.00,≤ 7.00,–,–,CO[C@H](C)c1cc2cnc(Nc3ccc(N4CCNCC4)nn3)nc2c(NC(C)(C)C)n1 [Compound 709]
–,–,> 8.00,≤ 7.00,C[C@@H](O)c1cc2cnc(Nc3ccc(CN4CCNCC4)cn3)nc2c(NC2CCS(=O)(=O)CC2)n1 [Compound 314]

pIC50 (CDK4/cyclin D3; [1]),pIC50 (CDK2/cyclin A2; [2]),pIC50 (CDK4/cyclin D3; [3]),pIC50 (CDK2/cyclin A2; [4]),SMILES
–,–,> 8.00,≤ 7.00,CC(O)c1cc2cnc(Nc3ccc(N4CCNCC4)cn3)nc2c(NC(C)(C)CO)n1 (centres unmarked) [Compound 45]
–,–,> 8.00,7.00 to 8.00,CC(C)Nc1nc(C(F)F)cc2cnc(Nc3ccc(N4C[C@H](O)CC4=O)cn3)nc12 [Compound 183]
–,–,7.00 to 8.00,≤ 7.00,COCC(C)(C)Nc1nc([C@@H](C)O)cc2cnc(Nc3ccc(CN4CC[C@@H](F)C4)cn3)nc12 [Compound 292]
–,–,> 8.00,7.00 to 8.00,CC(C)Nc1nc(C(F)F)cc2cnc(Nc3ccc(CN4CCC(C(=O)O)C4)cn3)nc12 (centres unmarked) [Compound 190]
> 8.00,≤ 7.00,–,–,CCCNc1nc([C@@H](C)O)cc2cnc(Nc3ccc4c(n3)CCN(C(=O)OCCN(C)C)C4)nc12 [Compound 1141]
> 8.00,≤ 7.00,–,–,CC(C)Nc1nc([C@@H](C)O)cc2cnc(Nc3ccc(-c4cncn4C)cn3)nc12 [Compound 958]
> 8.00,≤ 7.00,–,–,CO[C@H](C)c1cc2cnc(Nc3ccc(CN4CCN(C(=O)C5CCOC5)CC4)cn3)nc2c(NC(C)C)n1 (some centres unmarked) [Compound 1158]
> 8.00,≤ 7.00,–,–,C[C@@H](O)c1cc2cnc(Nc3ccc(CN4CCN(CCO)CC4)cn3)nc2c(NC2CCC2)n1 [Compound 998]
–,–,> 8.00,≤ 7.00,CO[C@H](C)c1cc2cnc(Nc3ccc(CN4CCN(CCO)CC4)cn3)nc2c(NC(C)C)n1 [Compound 508]
> 8.00,≤ 7.00,–,–,C[C@@H](O)c1cc2cnc(Nc3ccc(CN4CCN(CCO)CC4)cn3)nc2c(NCC2CCOCC2)n1 [Compound 847]
7.00 to 8.00,7.00 to 8.00,–,–,CC(C)Nc1nc(C(F)F)c(Cl)c2cnc(Nc3ccc(N4CCNCC4=O)cn3)nc12 [Compound 850]
> 8.00,≤ 7.00,–,–,CO[C@H](C)c1cc2cnc(Nc3ccc(N4CCNCC4)nn3)nc2c(NCC(C)(C)C)n1 [Compound 710]
–,–,> 8.00,≤ 7.00,CC(C)Nc1nc([C@@H](C)O)cc2cnc(Nc3ccc(N4CCN(CC(C)(C)O)CC4)nn3)nc12 [Compound 625]
> 8.00,≤ 7.00,–,–,CNCCOc1ccc(Nc2ncc3c(Cl)c([C@@H](C)O)nc(N[C@H]4CCCOC4)c3n2)nc1 [Compound 755]
7.00 to 8.00,≤ 7.00,–,–,CO[C@H](C)c1cc2cnc(Nc3ncc(N4CCNCC4=O)cc3F)nc2c(NC(C)C)n1 [Compound 715]
> 8.00,≤ 7.00,–,–,C[C@@H](O)c1cc2cnc(Nc3ccc(N4CCNCC4=O)cn3)nc2c(NC2CCC(C)(C)OC2)n1 (some centres unmarked) [Compound 649]
> 8.00,7.00 to 8.00,–,–,CC(C)Nc1nc([C@@H](C)O)cc2cnc(Nc3ccc(C(=O)N4CCNC[C@H]4C)cn3)nc12 [Compound 1167]
≤ 7.00,≤ 7.00,–,–,CC(C)Nc1nc(C2CCCO2)cc2cnc(Nc3ccc(N4CCNCC4=O)cn3)nc12 (centres unmarked) [Compound 670]
> 8.00,≤ 7.00,–,–,CC(C)Nc1nc([C@@H](C)O)cc2cnc(Nc3ccc(CN4CCN(C5COC5)CC4)cn3)nc12 [Compound 683]
> 8.00,≤ 7.00,–,–,CC(C)Nc1nc([C@@H](C)O)cc2cnc(Nc3ccc(N4CCN(C(=O)OC(C)C)CC4)nn3)nc12 [Compound 767]
–,–,> 8.00,≤ 7.00,CC(C)CN1CCN(c2ccc(Nc3ncc4cc([C@@H](C)O)nc(NC(C)C)c4n3)nc2)C(=O)C1 [Compound 596]
–,≤ 7.00,–,–,CC(C)Nc1nc([C@@H](C)O)cc2cnc(Nc3ccc(N4CCN(C(=O)C5CCCO5)CC4)nn3)nc12 (some centres unmarked) [Compound 1184]
–,≤ 7.00,–,–,CCCNc1nc([C@@H](C)O)cc2cnc(Nc3ccc(CN4CCCC(O)C4)cn3)nc12 (some centres unmarked) [Compound 1082]
